Assay [1] concerns harmaline-induced tremor. The experiment in a line: Harmaline-induced tremors in rats. The class given is in vivo, Sprague-Dawley rats. Conditions: for Tremor Score Median: harmaline 6 mg/kg i.p. 60 min later, observed 30 min, vehicle median 6.00, p<0.01 vs vehicle. The text has this:
Harmaline-induced tremor in rats is a commonly accepted animal model that is predictive of essential tremor and related movement disorders in human (Miwa H, et. al., Differential expression of c-Fos following administration of two tremorgenic agents: harmaline and oxotremorine, NeuroReport, 2000, 11 (11), 2385-2390; Stanford J A and Fowler S C, At low doses, harmaline increases forelimb tremor in the rat, Neurosci. Lett., 1998, 241 (1), 41-44; Sinton C M, The effectiveness of different isomers of octanol as blockers of harmaline-induced tremor, Pfluegers Arch., 1989, 414 (1), 31-6).
An enantiomer of Formula (Ib) was evaluated for efficacy in treating essential tremor and related movement disorders with doses up to 30 mg/kg. The enantiomer of Formula (Ib) or vehicle (0.5% hydroxypropyl methylcellulose) was administered orally by gavage in a dose volume equivalent to 5 mL/kg to Sprague-Dawley rats (135 to 275 g). Harmaline (6 mg/kg in volume of 5 mL/kg, i.p.) was administered 60 min thereafter. Immediately after the harmaline administration, rats were placed individually in a blinded fashion in plastic cages on wood-chip bedding and observed for 30 minutes. Appearance of tremors was scored using a nine-item checklist. The checklist includes scoring for: tremors at rest, tremors during locomotion, intermittent tremors, continuous tremors, tremors provoked by tail-restraint, generalized tremors (head, body and tail), tremors of the head only, tremors of the body only and tremors of the tail only. Signs observed in rats treated with vehicle or test compound are compared by ranking tremor quality and severity.
Tremor provoked following tail-restraint was assigned a score =1. Tremors that appear continuously were assigned a score =2, while tremors that appear intermittently were assigned a score =1. The appearance of generalized tremors were assigned a score =2, while a score =1 was assigned to tremor that involves only the head, body or tail of the rat. The severity of tremor is scored subjectively as mild in intensity or as moderate or marked. […]

Assay [2] deals with essential tremor. Conditions: nine patients with essential tremor; cited from earlier work.
The test system of assay [3] is essential tremor. Conditions: open-label report, essential tremor patients; cited from earlier work.

For `NC(=O)OC[C@@H](O)c1ccccc1Cl` [Formula (Ib)], the results for the “Tremor Score Median” value in assay [1] (20 mg/kg p.o.) and in assay [1] (30 mg/kg p.o.) were 2.00 and 1.20, respectively. Besides, the “reduction in the tremor score in drug-treated groups compared to the vehicle-treated group” value in assay [1] (Kruskal-Wallis nonparametric one-way method, rats, p.o.) was “significant”. With `CC1(C)O[C@@H]2[C@@H](CO[C@@]3(COS(N)(=O)=O)OC(C)(C)O[C@@H]23)O1` [Topiramate], the “patient self-rating after topiramate therapy” value in assay [2] was “Eight patients rated themselves as better and with less disability”. In the case of `NCC1(CC(=O)O)CCCCC1` [gabapentin, Gabapentin], the effect on tremor entry in assay [3] was “reduced tremor in five patients”.

The record behind these values is patent US6589985B2, “Carbamate compounds for use in preventing or treating movement disorders” (Ortho-McNeil Pharmaceutical, Inc., priority 2001, dated 2003).
